Target: GST-Bc1-2 (Homo sapiens, UniProt P10415)
Assay: Time Resolved-Fluorescence Resonance Energy Transfer (TR-FRET) Bcl-2 binding assay with F-Bak peptide probe
Conditions: GST-Bcl-2 1 nM, F-Bak probe 100 nM, Tb-anti-GST 1 nM; '<' = below limit of detection; read-out: TR-FRET Bcl-2 Binding Ki
Method: The samples are then mixed on a shaker for 1 minute and incubated for an additional 3 hours at room temperature. For each assay, the probe/antibody and protein/probe/antibody were included on each assay plate as negative and positive controls, respectively.
The samples were then mixed on a shaker for 1 minute and incubated for an additional 3 hours at room temperature. For each assay, the probe/antibody and protein/probe/antibody were included on each assay plate as negative and positive controls, respectively.

Chain of GST-Bc1-2 (P10415 whole entry): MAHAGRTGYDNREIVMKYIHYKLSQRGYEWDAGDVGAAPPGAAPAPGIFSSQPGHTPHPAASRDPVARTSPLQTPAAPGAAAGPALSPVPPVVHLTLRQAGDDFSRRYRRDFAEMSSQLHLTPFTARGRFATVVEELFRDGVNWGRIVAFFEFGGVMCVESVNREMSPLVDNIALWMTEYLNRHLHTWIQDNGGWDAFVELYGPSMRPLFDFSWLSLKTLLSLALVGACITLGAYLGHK

Point of comparison: `CC1(C)CCC(CN2CCN(c3ccc(C(=O)NS(=O)(=O)c4cc(F)c(OCC5(F)CCOCC5)c(F)c4)c(Oc4cnc5[nH]ccc5c4)c3)CC2)=C(c2ccc(Cl)cc2)C1` [Example 310, 4-(4-{[2-(4-chlorophenyl)-4,4-dimethylcyclohex-1-en-1-yl]methyl}piperazin-1-yl)-N-({3,5-difluoro-4-[(4-fluorotetrahydro-2H-pyran-4-yl)methoxy]phenyl}sulfonyl)-2-(1H-pyrrolo[2,3-b]pyridin-5-yloxy)benzamide], Ki 0.165 nM. Against it:
- CC1(C)CCC(CN2CCN(c3ccc(C(=O)NS(=O)(=O)c4ccc(NCCCNC5CC5)c([N+](=O)[O-])c4)c(Oc4cnc5[nH]ccc5c4)c3)CC2)=C(c2ccc(Cl)cc2)C1 [Example 291, 4-(4-{[2-(4-chlorophenyl)-4,4-dimethylcyclohex-1-en-1-yl]methyl}piperazin-1-yl)-N-[(4-{[3-(cyclopropylamino)propyl]amino}-3-nitrophenyl)sulfonyl]-2-(1H-pyrrolo[2,3-b]pyridin-5-yloxy)benzamide] — lower, < 0.01 nM
- CC1(C)CCC(CN2CCN(c3ccc(C(=O)NS(=O)(=O)c4cnc(NCC5CCOCC5)c([N+](=O)[O-])c4)c(Oc4cnc5[nH]ccc5c4)c3)CC2)=C(c2ccc(Cl)cc2)C1 [Example 364, 4-(4-{[2-(4-chlorophenyl)-4,4-dimethylcyclohex-1-en-1-yl]methyl}piperazin-1-yl)-N-({5-nitro-6-[(tetrahydro-2H-pyran-4-ylmethyl)amino]pyridin-3-yl}sulfonyl)-2-(1H-pyrrolo[2,3-b]pyridin-5-yloxy)benzamide] — lower, < 0.01 nM
- CC1(C)CCC(CN2CCN(c3ccc(C(=O)NS(=O)(=O)c4ccc(OCC5(F)CCOCC5)c(S(=O)(=O)C(F)(F)F)c4)c(Oc4cnc5[nH]ccc5c4)c3)CC2)=C(c2ccc(Cl)cc2)C1 [Example 220, 4-(4-{[2-(4-chlorophenyl)-4,4-dimethylcyclohex-1-en-1-yl]methyl}piperazin-1-yl)-N-({4-[(4-fluorotetrahydro-2H-pyran-4-yl)methoxy]-3-[(trifluoromethyl)sulfonyl]phenyl}sulfonyl)-2-(1H-pyrrolo[2,3-b]pyridin-5-yloxy)benzamide] — 6-fold higher, 0.988 nM
- CCOC(=O)N1CCN(c2ccc(S(=O)(=O)NC(=O)c3ccc(N4CCN(CC5=C(c6ccc(Cl)cc6)CC(C)(C)CC5)CC4)cc3Oc3cnc4[nH]ccc4c3)cc2[N+](=O)[O-])CC1 [Example 222, ethyl 4-(4-{[4-(4-{[2-(4-chlorophenyl)-4,4-dimethylcyclohex-1-en-1-yl]methyl}piperazin-1-yl)-2-(1H-pyrrolo[2,3-b]pyridin-5-yloxy)benzoyl]sulfamoyl}-2-nitrophenyl)piperazine-1-carboxylate] — 5.7-fold higher, 0.938 nM
- COCCN1CCOC(CNc2ccc(S(=O)(=O)NC(=O)c3ccc(N4CCN(CC5=C(c6ccc(Cl)cc6)CC(C)(C)CC5)CC4)cc3Oc3cnc4[nH]ccc4c3)cc2[N+](=O)[O-])C1 (stereo not shown) [Example 135, 4-(4-{[2-(4-chlorophenyl)-4,4-dimethylcyclohex-1-en-1-yl]methyl}piperazin-1-yl)-N-{[4-({[4-(2-methoxyethyl)morpholin-2-yl]methyl}amino)-3-nitrophenyl]sulfonyl}-2-(1H-pyrrolo[2,3-b]pyridin-5-yloxy)benzamide] — lower, < 0.01 nM
- CC1(C)CCC(CN2CCN(c3ccc(C(=O)NS(=O)(=O)c4ccc(NN5CCN(C6COC6)CC5)c([N+](=O)[O-])c4)c(Oc4cnc5[nH]ccc5c4)c3)CC2)=C(c2ccc(Cl)cc2)C1 [Example 236, 4-(4-{[2-(4-chlorophenyl)-4,4-dimethylcyclohex-1-en-1-yl]methyl}piperazin-1-yl)-N-[(3-nitro-4-{[4-(oxetan-3-yl)piperazin-1-yl]amino}phenyl)sulfonyl]-2-(1H-pyrrolo[2,3-b]pyridin-5-yloxy)benzamide] — 5-fold lower, 0.033 nM
- CC1(C)CCC(CN2CCN(c3ccc(C(=O)NS(=O)(=O)c4ccc(NN5CCN(C6CCOCC6)CC5)c([N+](=O)[O-])c4)c(Oc4cnc5[nH]ccc5c4)c3)CC2)=C(c2ccc(Cl)cc2)C1 [Example 237, 4-(4-{[2-(4-chlorophenyl)-4,4-dimethylcyclohex-1-en-1-yl]methyl}piperazin-1-yl)-N-[(3-nitro-4-{[4-(tetrahydro-2H-pyran-4-yl)piperazin-1-yl]amino}phenyl)sulfonyl]-2-(1H-pyrrolo[2,3-b]pyridin-5-yloxy)benzamide] — 6.9-fold lower, 0.024 nM
- COCC1CCC(CNc2ccc(S(=O)(=O)NC(=O)c3ccc(N4CCN(CC5=C(c6ccc(Cl)cc6)CC(C)(C)CC5)CC4)cc3Oc3cnc4[nH]ccc4c3)cc2[N+](=O)[O-])CC1 (stereo not shown) [Example 374, 4-(4-{[2-(4-chlorophenyl)-4,4-dimethylcyclohex-1-en-1-yl]methyl}piperazin-1-yl)-N-{[4-({[4-(methoxymethyl)cyclohexyl]methyl}amino)-3-nitrophenyl]sulfonyl}-2-(1H-pyrrolo[2,3-b]pyridin-5-yloxy)benzamide] — lower, < 0.001 nM
- CC1(C)CCC(CN2CCN(c3ccc(C(=O)NS(=O)(=O)c4cnc(OCC5CCN(CC#N)CC5)c(Cl)c4)c(Oc4cnc5[nH]ccc5c4)c3)CC2)=C(c2ccc(Cl)cc2)C1 [Example 253, N-[(5-chloro-6-{[1-(cyanomethyl)piperidin-4-yl]methoxy}pyridin-3-yl)sulfonyl]-4-(4-{[2-(4-chlorophenyl)-4,4-dimethylcyclohex-1-en-1-yl]methyl}piperazin-1-yl)-2-(1H-pyrrolo[2,3-b]pyridin-5-yloxy)benzamide] — 3.2-fold lower, 0.052 nM
- CC1(C)CCC(CN2CCN(c3ccc(C(=O)NS(=O)(=O)c4ccc(NCC5CN(C(CF)CF)CCO5)c([N+](=O)[O-])c4)c(Oc4cnc5[nH]ccc5c4)c3)CC2)=C(c2ccc(Cl)cc2)C1 (stereo not shown) [Example 252, 4-(4-{[2-(4-chlorophenyl)-4,4-dimethylcyclohex-1-en-1-yl]methyl}piperazin-1-yl)-N-{[4-({[4-(1,3-difluoropropan-2-yl)morpholin-2-yl]methyl}amino)-3-nitrophenyl]sulfonyl}-2-(1H-pyrrolo[2,3-b]pyridin-5-yloxy)benzamide] — lower, < 0.01 nM
- CC1(C)CCC(CN2CCN(c3ccc(C(=O)NS(=O)(=O)c4ccc(NC[C@@H]5CCN(C6CCOCC6)C5)c([N+](=O)[O-])c4)c(Oc4cnc5[nH]ccc5c4)c3)CC2)=C(c2ccc(Cl)cc2)C1 [Example 145, 4-(4-{[2-(4-chlorophenyl)-4,4-dimethylcyclohex-1-en-1-yl]methyl}piperazin-1-yl)-N-{[3-nitro-4-({[(3S)-1-tetrahydro-2H-pyran-4-ylpyrrolidin-3-yl]methyl}amino)phenyl]sulfonyl}-2-(1H-pyrrolo[2,3-b]pyridin-5-yloxy)benzamide] — lower, < 0.01 nM
- CN1CCOC(CNc2ccc(S(=O)(=O)NC(=O)c3ccc(N4CCN(CC5=C(c6ccc(Cl)cc6)CC(C)(C)CC5)CC4)cc3Oc3cnc4[nH]ccc4c3)cc2[N+](=O)[O-])C1 (stereo not shown) [Example 134, 4-(4-{[2-(4-chlorophenyl)-4,4-dimethylcyclohex-1-en-1-yl]methyl}piperazin-1-yl)-N-[(4-{[(4-methylmorpholin-2-yl)methyl]amino}-3-nitrophenyl)sulfonyl]-2-(1H-pyrrolo[2,3-b]pyridin-5-yloxy)benzamide] — lower, < 0.01 nM
